Measured values taken from patent publication US10206394B2, “Herbicidal compounds” (Syngenta Participations AG, priority 2014, dated 2019).
Like-named read-outs stand apart in the source and are kept apart here.

Key:
Assay in all cases: Glasshouse assay for herbicidal activity (pre- and post-emergence), percentage phytotoxicity
Assay type in all cases: in vivo
[1] = tested on: Echinochloa crus-galli (ECHCG); conditions: Echinochloa crus-galli
Summary of the method: (§1)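 Percent injury was estimated by eye on a scale where 0% means no damage and 100% complete damage. Ratings came 15 DAA post-emergence and 20 DAA pre-emergence, with plants held under 16 h light and 65% humidity at 24/18 °C or 20/16 °C day/night.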

Avena fatua (AVEFA) = conditions: Avena fatua
Summary of the method: as §1

Lolium perenne (LOLPE) = conditions: Lolium perenne
Summary of the method: as §1

[2] = tested on: Alopecurus myosuroides (ALOMY); conditions: Alopecurus myosuroides
Summary of the method: as §1

[3] = post-emergence, 360 h, Rate 250 g/ha, post-emergence, visual assessment 15 DAA, 100%=total damage, 0%=no damage, read-out: Post-emergence herbicidal activity (percentage phytotoxicity) ECHCG POST
[4] = pre-emergence, 480 h, Rate 250 g/ha, pre-emergence, visual assessment 20 DAA, 100%=total damage, 0%=no damage, read-out: Pre-emergence herbicidal activity (percentage phytotoxicity) ECHCG PRE
[5] = post-emergence, 360 h, Rate 250 g/ha, post-emergence, visual assessment 15 DAA, 100%=total damage, 0%=no damage, read-out: Post-emergence herbicidal activity (percentage phytotoxicity) AVEFA POST
[6] = pre-emergence, 480 h, Rate 250 g/ha, pre-emergence, visual assessment 20 DAA, 100%=total damage, 0%=no damage, read-out: Pre-emergence herbicidal activity (percentage phytotoxicity) AVEFA PRE
[7] = post-emergence, 360 h, Rate 250 g/ha, post-emergence, visual assessment 15 DAA, 100%=total damage, 0%=no damage, read-out: Post-emergence herbicidal activity (percentage phytotoxicity) LOLPE POST
[8] = pre-emergence, 480 h, Rate 250 g/ha, pre-emergence, visual assessment 20 DAA, 100%=total damage, 0%=no damage, read-out: Pre-emergence herbicidal activity (percentage phytotoxicity) LOLPE PRE
[9] = post-emergence, 360 h, Rate 250 g/ha, post-emergence, visual assessment 15 DAA, 100%=total damage, 0%=no damage, read-out: Post-emergence herbicidal activity (percentage phytotoxicity) ALOMY POST
[10] = pre-emergence, 480 h, Rate 250 g/ha, pre-emergence, visual assessment 20 DAA, 100%=total damage, 0%=no damage, read-out: Pre-emergence herbicidal activity (percentage phytotoxicity) ALOMY PRE
[11] = post-emergence, 360 h, 250 g/ha, post-emergence, 15 DAA, visual assessment (100%=total damage, 0%=no damage), read-out: Post-emergence herbicidal activity (percentage phytotoxicity) ECHCG POST
[12] = pre-emergence, 480 h, 250 g/ha, pre-emergence, 20 DAA, visual assessment (100%=total damage, 0%=no damage), read-out: Pre-emergence herbicidal activity (percentage phytotoxicity) ECHCG PRE
[13] = post-emergence, 360 h, 250 g/ha, post-emergence, 15 DAA, visual assessment (100%=total damage, 0%=no damage), read-out: Post-emergence herbicidal activity (percentage phytotoxicity) AVEFA POST
[14] = pre-emergence, 480 h, 250 g/ha, pre-emergence, 20 DAA, visual assessment (100%=total damage, 0%=no damage), read-out: Pre-emergence herbicidal activity (percentage phytotoxicity) AVEFA PRE
[15] = post-emergence, 360 h, 250 g/ha, post-emergence, 15 DAA, visual assessment (100%=total damage, 0%=no damage), read-out: Post-emergence herbicidal activity (percentage phytotoxicity) LOLPE POST
[16] = pre-emergence, 480 h, 250 g/ha, pre-emergence, 20 DAA, visual assessment (100%=total damage, 0%=no damage), read-out: Pre-emergence herbicidal activity (percentage phytotoxicity) LOLPE PRE
[17] = post-emergence, 360 h, 250 g/ha, post-emergence, 15 DAA, visual assessment (100%=total damage, 0%=no damage), read-out: Post-emergence herbicidal activity (percentage phytotoxicity) ALOMY POST
[18] = pre-emergence, 480 h, 250 g/ha, pre-emergence, 20 DAA, visual assessment (100%=total damage, 0%=no damage), read-out: Pre-emergence herbicidal activity (percentage phytotoxicity) ALOMY PRE
[19] = post-emergence, 360 h, Rate 250 g/ha, post-emergence, assessed visually 15 DAA, 100%=total damage, 0%=no damage, read-out: Post-emergence herbicidal activity (percentage phytotoxicity) ECHCG POST
[20] = pre-emergence, 480 h, Rate 250 g/ha, pre-emergence, assessed visually 20 DAA, 100%=total damage, 0%=no damage, read-out: Pre-emergence herbicidal activity (percentage phytotoxicity) ECHCG PRE
[21] = post-emergence, 360 h, Rate 250 g/ha, post-emergence, assessed visually 15 DAA, 100%=total damage, 0%=no damage, read-out: Post-emergence herbicidal activity (percentage phytotoxicity) AVEFA POST
[22] = pre-emergence, 480 h, Rate 250 g/ha, pre-emergence, assessed visually 20 DAA, 100%=total damage, 0%=no damage, read-out: Pre-emergence herbicidal activity (percentage phytotoxicity) AVEFA PRE
[23] = post-emergence, 360 h, Rate 250 g/ha, post-emergence, assessed visually 15 DAA, 100%=total damage, 0%=no damage, read-out: Post-emergence herbicidal activity (percentage phytotoxicity) LOLPE POST
[24] = pre-emergence, 480 h, Rate 250 g/ha, pre-emergence, assessed visually 20 DAA, 100%=total damage, 0%=no damage, read-out: Pre-emergence herbicidal activity (percentage phytotoxicity) LOLPE PRE
[25] = post-emergence, 360 h, Rate 250 g/ha, post-emergence, assessed visually 15 DAA, 100%=total damage, 0%=no damage, read-out: Post-emergence herbicidal activity (percentage phytotoxicity) ALOMY POST
[26] = pre-emergence, 480 h, Rate 250 g/ha, pre-emergence, assessed visually 20 DAA, 100%=total damage, 0%=no damage, read-out: Pre-emergence herbicidal activity (percentage phytotoxicity) ALOMY PRE

Row | SMILES | pest or weed control at 250 g/ha [1, 3] | pest or weed control at 250 g/ha [1, 4] | pest or weed control at 250 g/ha (Avena fatua (AVEFA); [5]) | pest or weed control at 250 g/ha (Avena fatua (AVEFA); [6]) | pest or weed control at 250 g/ha (Lolium perenne (LOLPE); [7]) | pest or weed control at 250 g/ha (Lolium perenne (LOLPE); [8]) | pest or weed control at 250 g/ha [2, 9] | pest or weed control at 250 g/ha [2, 10] | pest or weed control at 250 g/ha [1, 11] | pest or weed control at 250 g/ha [1, 12] | pest or weed control at 250 g/ha (Avena fatua (AVEFA); [13]) | pest or weed control at 250 g/ha (Avena fatua (AVEFA); [14]) | pest or weed control at 250 g/ha (Lolium perenne (LOLPE); [15]) | pest or weed control at 250 g/ha (Lolium perenne (LOLPE); [16]) | pest or weed control at 250 g/ha [2, 17] | pest or weed control at 250 g/ha [2, 18] | pest or weed control at 250 g/ha [1, 19] | pest or weed control at 250 g/ha [1, 20] | pest or weed control at 250 g/ha (Avena fatua (AVEFA); [21]) | pest or weed control at 250 g/ha (Avena fatua (AVEFA); [22]) | other results
1 | C=CCNC(=O)CC1CC(=O)C(c2c(C)cc(-c3ccc(Cl)cn3)cc2C)C1=O (stereo not drawn) [Compound B370] | 100% | 100% | 100% | 100% | 100% | 100% | 90% | 100% |  |  |  |  |  |  |  |  |  |  |  |  | 
2 | Cc1cc(C)c(C2=C(OC(=O)C(C)(C)C)CC(CC(N)=O)C2=O)c(C)c1 (stereo not drawn) [Compound P11] | 90% | 90% | 90% | 30% | 90% | 80% | 80% | 70% |  |  |  |  |  |  |  |  |  |  |  |  | 
3 | C=CC1(NC(=O)CC2CC(=O)C(c3c(C)cc(C)cc3C)C2=O)CC1 (stereo not drawn) [Compound B62] |  |  |  |  |  |  |  |  | 70% | 90% | 70% | 40% | 90% | 90% | 70% | 80% |  |  |  |  | 
4 | Cc1cc(-c2ncc(F)cn2)cc(C)c1C1C(=O)CC(CC(=O)NCc2ncccc2Cl)C1=O (stereo not drawn) [Compound A140] |  |  |  |  |  |  |  |  |  |  |  |  |  |  |  |  | 100% | 100% | 100% | 100% | pest or weed control at 250 g/ha (Lolium perenne (LOLPE); [23]): 90%; pest or weed control at 250 g/ha (Lolium perenne (LOLPE); [24]): 100%; pest or weed control at 250 g/ha [2, 25]: 100%; pest or weed control at 250 g/ha [2, 26]: 90%
5 | Cc1cnc(CNC(=O)CC2CC(=O)C(c3c(C)cc(-c4ncc(F)cn4)cc3C)C2=O)cn1 (stereo not drawn) [Compound A157] |  |  |  |  |  |  |  |  |  |  |  |  |  |  |  |  | 100% | 90% | 90% | 70% | pest or weed control at 250 g/ha (Lolium perenne (LOLPE); [23]): 90%; pest or weed control at 250 g/ha (Lolium perenne (LOLPE); [24]): 70%; pest or weed control at 250 g/ha [2, 25]: 80%; pest or weed control at 250 g/ha [2, 26]: 60%
6 | COc1cccc(CNC(=O)CC2CC(=O)C(c3c(C)cc(-c4ncc(Cl)cc4F)cc3C)C2=O)c1 (stereo not drawn) [Compound B131] |  |  |  |  |  |  |  |  | 100% | 90% | 100% | 30% | 90% | 80% | 90% | 80% |  |  |  |  | 
